The values that follow come from US20220220128A1, “HETEROCYCLIC COMPOUNDS AS KINASE INHIBITORS, COMPOSITIONS COMPRISING THE HETEROCYCLIC COMPOUND, AND METHODS OF USE THEREOF” (JS Innopharm (Shanghai) Ltd, priority 2019, published 2022).

One assay addresses T1, human RET kinase (Homo sapiens, UniProt P07949).
T1 construct: purchased Carna 08-159
As to the kind of experiment: RET Kinase Assay (LanthaScreen TR-FRET enzymatic assay). The format is biochemical. As to conditions: 7 nM RET, 23 μM ATP. In outline: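 TR-FRET enzymatic read-out using 23 μM ATP, 3 μM FAM-P2 substrate and 7 nM human RET, after 15-min compound pretreatment at room temperature and a 1 h reaction at 28° C in HEPES pH 7.5 buffer. Percent of DMSO control fitted to nonlinear sigmoid curves for IC50.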
For orientation: TR-FRET usually uses a lanthanide donor and a delayed reading to cut background.

Another assay concerns the target T2, human KDR kinase (Homo sapiens, UniProt P35968).
T2 construct: purchased Carna 08-191
Nature of the assay: KDR Kinase Assay (LanthaScreen TR-FRET enzymatic assay). The format is biochemical. As to conditions: 1.2 nM KDR, 92 μM ATP. In outline:
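TR-FRET enzymatic format: after 15-min room-temperature compound pretreatment, 1.2 nM human KDR phosphorylated 3 μM FAM-P22 with 92 μM ATP (HEPES pH 7.5, 28° C., one hour). Reactions were quenched with EDTA buffer. IC50 came from nonlinear sigmoid fits of percent-of-vehicle signal ratios.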

In the next assay the test system is TT cells. Nature of the assay: TT Cell Proliferation Assay (WST-8, 8 days). The format is cell-based. As to conditions: growth inhibition in TT cells, read-out: TT Cellular Activity. In outline:
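IC50 was derived from absorbance at 450 nm after 5 h with WST-8, following 8 days' incubation at 37 °C. Final compound levels spanned 0.0005–5 μM in 0.5% DMSO. TT cells were seeded at 6,000 per well in 10% FBS RPMI-1640 and left to attach for 24 h beforehand.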
For orientation: Formazan colour is commonly taken as a measure of viable cells.

Read-outs that look alike come from different tables or passages of the source. Some results are limits rather than exact numbers.

T2 sequence (P35968 20-1356): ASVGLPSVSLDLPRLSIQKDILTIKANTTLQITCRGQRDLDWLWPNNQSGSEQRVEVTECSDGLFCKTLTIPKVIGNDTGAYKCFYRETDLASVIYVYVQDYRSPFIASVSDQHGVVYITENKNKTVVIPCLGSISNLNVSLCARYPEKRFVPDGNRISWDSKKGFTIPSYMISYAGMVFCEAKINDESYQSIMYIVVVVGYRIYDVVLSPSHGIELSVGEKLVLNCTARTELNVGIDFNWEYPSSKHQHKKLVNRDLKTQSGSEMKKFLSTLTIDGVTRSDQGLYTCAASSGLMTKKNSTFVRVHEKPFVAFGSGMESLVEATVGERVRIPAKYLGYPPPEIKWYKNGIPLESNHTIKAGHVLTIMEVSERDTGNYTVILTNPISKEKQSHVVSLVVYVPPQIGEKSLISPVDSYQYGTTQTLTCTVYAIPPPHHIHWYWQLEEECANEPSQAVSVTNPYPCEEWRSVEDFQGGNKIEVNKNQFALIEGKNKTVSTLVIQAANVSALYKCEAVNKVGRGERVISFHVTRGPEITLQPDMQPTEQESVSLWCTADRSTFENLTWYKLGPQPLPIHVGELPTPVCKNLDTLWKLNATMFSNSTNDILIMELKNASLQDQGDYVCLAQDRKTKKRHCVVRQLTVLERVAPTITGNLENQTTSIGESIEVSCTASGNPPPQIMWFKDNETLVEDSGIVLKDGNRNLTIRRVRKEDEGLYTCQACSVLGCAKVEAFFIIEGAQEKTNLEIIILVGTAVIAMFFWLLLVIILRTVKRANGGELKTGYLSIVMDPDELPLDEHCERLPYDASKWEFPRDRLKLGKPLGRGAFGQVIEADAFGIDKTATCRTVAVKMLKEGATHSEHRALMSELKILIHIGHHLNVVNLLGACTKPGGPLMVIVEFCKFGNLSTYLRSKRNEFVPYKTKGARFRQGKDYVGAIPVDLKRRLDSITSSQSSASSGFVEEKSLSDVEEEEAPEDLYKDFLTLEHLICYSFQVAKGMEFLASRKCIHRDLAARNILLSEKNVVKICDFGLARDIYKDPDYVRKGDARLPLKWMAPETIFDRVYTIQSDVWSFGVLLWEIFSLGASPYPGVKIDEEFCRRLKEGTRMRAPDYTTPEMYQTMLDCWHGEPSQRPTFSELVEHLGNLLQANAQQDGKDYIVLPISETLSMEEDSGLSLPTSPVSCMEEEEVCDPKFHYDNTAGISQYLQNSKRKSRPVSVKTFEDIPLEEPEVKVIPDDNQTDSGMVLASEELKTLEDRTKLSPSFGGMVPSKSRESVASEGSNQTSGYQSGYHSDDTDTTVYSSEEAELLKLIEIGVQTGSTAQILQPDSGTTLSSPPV
T1 sequence (P07949 29-1114): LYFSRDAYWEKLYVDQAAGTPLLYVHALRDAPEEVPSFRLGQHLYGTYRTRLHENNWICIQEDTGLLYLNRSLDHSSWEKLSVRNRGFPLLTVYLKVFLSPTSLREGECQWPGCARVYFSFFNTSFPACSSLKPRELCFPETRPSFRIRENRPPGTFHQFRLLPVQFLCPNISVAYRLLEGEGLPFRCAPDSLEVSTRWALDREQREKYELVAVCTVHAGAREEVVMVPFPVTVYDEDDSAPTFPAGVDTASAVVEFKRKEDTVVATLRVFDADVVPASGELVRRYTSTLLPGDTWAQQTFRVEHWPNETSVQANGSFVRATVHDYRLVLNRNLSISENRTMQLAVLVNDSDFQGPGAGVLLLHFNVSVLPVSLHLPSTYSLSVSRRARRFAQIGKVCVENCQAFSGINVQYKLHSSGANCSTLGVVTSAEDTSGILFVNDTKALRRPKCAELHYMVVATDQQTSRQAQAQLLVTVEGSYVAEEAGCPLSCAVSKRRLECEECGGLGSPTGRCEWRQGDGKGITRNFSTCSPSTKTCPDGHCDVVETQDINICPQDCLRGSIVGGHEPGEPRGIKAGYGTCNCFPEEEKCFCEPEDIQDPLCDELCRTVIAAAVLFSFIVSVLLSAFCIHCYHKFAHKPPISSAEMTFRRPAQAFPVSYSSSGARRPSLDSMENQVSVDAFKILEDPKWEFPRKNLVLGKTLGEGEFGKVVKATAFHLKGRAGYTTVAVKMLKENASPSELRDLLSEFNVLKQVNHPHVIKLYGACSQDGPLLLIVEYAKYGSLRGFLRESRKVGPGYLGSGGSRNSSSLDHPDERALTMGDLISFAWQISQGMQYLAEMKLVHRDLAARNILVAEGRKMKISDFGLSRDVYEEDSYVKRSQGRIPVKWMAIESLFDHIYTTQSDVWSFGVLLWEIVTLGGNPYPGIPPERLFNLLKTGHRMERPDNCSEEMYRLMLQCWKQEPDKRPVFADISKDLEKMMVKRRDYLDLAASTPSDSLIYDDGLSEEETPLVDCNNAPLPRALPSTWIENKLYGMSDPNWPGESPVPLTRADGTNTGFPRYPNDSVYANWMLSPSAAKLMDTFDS

For `CCOc1cc(-c2ccc(N3C[C@@H]4C[C@@](C)(NC(=O)c5ncccc5C(F)(F)F)C[C@@H]4C3)nc2)c2c(C#N)cnn2c1` [Example 65, N-((3aR,5s,6aS)-2-(5-(3-cyano-6-ethoxypyrazolo[1,5-a]pyridin-4-yl)pyridin-2-yl)-5-methyloctahydrocyclopenta[c]pyrrol-5-yl)-3-(trifluoromethyl)picolinamide], the IC50 at human RET kinase is not above 10 nM; against human KDR kinase, 50 to 100 nM; with TT cells (Homo sapiens, TT, 192 h), 10 to 50 nM.
In the case of `CCOc1cc(-c2ccc(N3C[C@@H]4C[C@@](C)(NC(=O)c5c(F)cccc5Cl)C[C@@H]4C3)nc2)c2c(C#N)cnn2c1` [Example 66, 2-chloro-N-((3aR,5s,6aS)-2-(5-(3-cyano-6-ethoxypyrazolo[1,5-a]pyridin-4-yl)pyridin-2-yl)-5-methyloctaliydrocyclopenta[c]pyrrol-5-yl)-6-fluorobenzamide], the IC50 against human RET kinase is not above 10 nM; on human KDR kinase, 50 to 100 nM; with TT cells (Homo sapiens, TT, 192 h) it was 10 to 50 nM.
With `CCOc1cc(-c2ccc(N3C[C@@H]4C[C@@](C)(NC(=O)c5nc(C)ccc5Cl)C[C@@H]4C3)nc2)c2c(C#N)cnn2c1` [Example 67, 3-chloro-N-((3aR,5s,6aS)-2-(5-(3-cyano-6-ethoxypyrazolo[1,5-a]pyridin-4-yl)pyridin-2-yl)-5-methyloctahydrocyclopenta[c]pyrrol-5-yl)-6-methylpicolinaniide], the IC50 was not above 10 nM against human RET kinase; more than 100 nM at human KDR kinase; 50 to 100 nM with TT cells (Homo sapiens, TT, 192 h).
With `CCOc1cc(-c2ccc(N3C[C@@H]4C[C@@](C)(NC(=O)c5cc(F)ccc5Cl)C[C@@H]4C3)nc2)c2c(C#N)cnn2c1` [Example 68, 2-chloro-N-((3aR,5s,6aS)-2-(5-(3-cyano-6-ethoxypyrazolo[1,5-a]pyridin-4-yl)pyridin-2-yl)-5-methyloctahydrocyclopenta[c]pyrrol-5-yl)-5-fluorobenzamide], the IC50 was not above 10 nM at human RET kinase; 50 to 100 nM against human KDR kinase; 10 to 50 nM with TT cells (Homo sapiens, TT, 192 h).
For `CCOc1cc(-c2ccc(N3C[C@@H]4C[C@@](C)(NC(=O)c5cc(F)ccc5C)C[C@@H]4C3)nc2)c2c(C#N)cnn2c1` [Example 69, N-((3aR,5s,6aS)-2-(5-(3-cyano-6-ethoxypyrazolo[1,5-a]pyridin-4-yl)pyridin-2-yl)-5-methyloctahydrocyclopenta[c]pyrrol-5-yl)-5-fluoro-2-methylbenzamide], the IC50 at human RET kinase is not above 10 nM; at human KDR kinase, more than 100 nM; with TT cells (Homo sapiens, TT, 192 h) it was not above 10 nM.
Take `Cn1cc(-c2cc(-c3ccc(N4C[C@@H]5[C@@H](CNC(=O)OC(C)(C)C)[C@@H]5C4)nc3)c3c(C#N)cnn3c2)cn1` [Example 71, tert-butyl (((1R,5S,6s)-3-(5-(3-cyano-6-(1-methyl-1H-pyrazol-4-yl)pyrazolo[1,5-a]pyridin-4-yl)pyridin-2-yl)-3-azabicyclo[3.1.0]hexan-6-yl)methyl)carbamate]: the IC50 on human RET kinase is not above 10 nM; on human KDR kinase, 10 to 50 nM; with TT cells (Homo sapiens, TT, 192 h), not above 10 nM.
On to `Cn1cc(-c2cc(-c3ccc(N4C[C@@H]5[C@H](CNC(=O)OC(C)(C)C)[C@@H]5C4)nc3)c3c(C#N)cnn3c2)cn1` [Example 72, tert-butyl (((1R,5S,6r)-3-(5-(3-cyano-6-(1-methyl-1H-pyrazol-4-yl)pyrazolo[1,5-a]pyridin-4-yl)pyridin-2-yl)-3-azabicyclo[3.1.0]hexan-6-yl)methyl)carbamate], for which the IC50 is not above 10 nM at human RET kinase; not above 10 nM on human KDR kinase; not above 10 nM in the assay with TT cells (Homo sapiens, TT, 192 h).
`Cn1cc(-c2cc(-c3ccc(N4C[C@@H]5[C@@H](CNS(=O)(=O)c6c(F)cccc6Cl)[C@@H]5C4)nc3)c3c(C#N)cnn3c2)cn1` [Example 74, 2-chloro-N-(((1R,5S,6r)-3-(5-(3-cyano-6-(1-methyl-H-pyrazol-4-yl)pyrazolo[1,5-a]pyridin-4-yl)pyridin-2-yl)-3-azabicyclo[3.1.0]hexan-6-yl)methyl)-6-fluorobenzenesulfonamide]: the IC50 against human RET kinase is not above 10 nM; on human KDR kinase it was 10 to 50 nM; in the assay with TT cells (Homo sapiens, TT, 192 h) it was 10 to 50 nM.
For the compound `Cn1cc(-c2cc(-c3ccc(N4C[C@@H]5[C@@H](CNC(=O)C(O)c6ccccc6)[C@@H]5C4)nc3)c3c(C#N)cnn3c2)cn1` (stereo partly drawn) [Example 76, N-(((1R,5S,6s)-3-(5-(3-cyano-6-(1-methyl-1H-pyrazol-4-yl)pyrazolo[1,5-a]pyridin-4-yl)pyridin-2-yl)-3-azabicyclo[3.1.0]hexan-6-yl)methyl)-2-hydroxy-2-phenylacetamide], the IC50 against human RET kinase is not above 10 nM; at human KDR kinase, not above 10 nM; in the assay on TT cells (Homo sapiens, TT, 192 h) it was 10 to 50 nM.
Take `CC(C)C(O)C(=O)NC[C@H]1[C@H]2CN(c3ccc(-c4cc(-c5cnn(C)c5)cn5ncc(C#N)c45)cn3)C[C@@H]12` (stereo partly drawn) [Example 77, N-(((1R,5S,6r)-3-(5-(3-cyano-6-(1-methyl-1H-pyrazol-4-yl)pyrazolo[1,5-a]pyridin-4-yl)pyridin-2-yl)-3-azabicyclo[3.1.0]hexan-6-yl)methyl)-2-hydroxy-3-methylbutanamide]: the IC50 on human RET kinase is not above 10 nM; against human KDR kinase, not above 10 nM; in the assay with TT cells (Homo sapiens, TT, 192 h), not above 10 nM.
On to `Cn1cc(-c2cc(-c3ccc(N4C[C@@H]5[C@H](CNC(=O)c6ncccc6Cl)[C@@H]5C4)nc3)c3c(C#N)cnn3c2)cn1` [Example 78, 3-chloro-N-(((1R,5S,6r)-3-(5-(3-cyano-6-(1-methyl-1H-pyrazol-4-yl)pyrazolo[1,5-a]pyridin-4-yl)pyridin-2-yl)-3-azabicyclo[3.1.0]hexan-6-yl)methyl)picolinamide], for which the IC50 against human RET kinase is not above 10 nM; against human KDR kinase, not above 10 nM; in the assay on TT cells (Homo sapiens, TT, 192 h), not above 10 nM.
Regarding `Cn1cc(-c2cc(-c3ccc(N4C[C@@H]5[C@H](CNC(=O)C(O)c6ccccc6)[C@@H]5C4)nc3)c3c(C#N)cnn3c2)cn1` (stereo partly drawn) [Example 79, N-(((1R,5S,6r)-3-(5-(3-cyano-6-(1-methyl-1H-pyrazol-4-yl)pyrazolo[1,5-a]pyridin-4-yl)pyridin-2-yl)-3-azabicyclo[3.1.0]hexan-6-yl)methyl)-2-hydroxy-2-phenylacetamide], the IC50 on human RET kinase was not above 10 nM; at human KDR kinase, not above 10 nM; in the assay on TT cells (Homo sapiens, TT, 192 h) it was not above 10 nM.
For `Cn1cc(-c2cc(-c3ccc(N4C[C@@H]5[C@@H](CNC(=O)c6cc(F)ccc6Cl)[C@@H]5C4)nc3)c3c(C#N)cnn3c2)cn1` [Example 80, 2-chloro-N-(((1R,5S,6s)-3-(5-(3-cyano-6-(1-methyl-1H-pyrazol-4-yl)pyrazolo[1,5-a]pyridin-4-yl)pyridin-2-yl)-3-azabicyclo[3.1.0]hexan-6-yl)methyl)-5-fluorobenzamide], the IC50 at human RET kinase was not above 10 nM; against human KDR kinase it was not above 10 nM; in the assay with TT cells (Homo sapiens, TT, 192 h) it was not above 10 nM.
On to `Cc1ccc(F)cc1C(=O)NC[C@@H]1[C@H]2CN(c3ccc(-c4cc(-c5cnn(C)c5)cn5ncc(C#N)c45)cn3)C[C@@H]12` [Example 81, N-(((1R,5S,6s)-3-(5-(3-cyano-6-(1-methyl-1H-pyrazol-4-yl)pyrazolo[1,5-a]pyridin-4-yl)pyridin-2-yl)-3-azabicyclo[3.1.0]hexan-6-yl)methyl)-5-fluoro-2-methylbenzamide], for which the IC50 against human RET kinase was not above 10 nM; on human KDR kinase it was 10 to 50 nM; in the assay with TT cells (Homo sapiens, TT, 192 h) it was not above 10 nM.
On to `Cc1ccc(Cl)c(C(=O)NC[C@@H]2[C@H]3CN(c4ccc(-c5cc(-c6cnn(C)c6)cn6ncc(C#N)c56)cn4)C[C@@H]23)n1` [Example 82, 3-chloro-N-(((1R,5S,6s)-3-(5-(3-cyano-6-(1-methyl-1H-pyrazol-4-yl)pyrazolo[1.5-a]pyridin-4-yl)pyridin-2-yl)-3-azabicyclo[3.1.0]hexan-6-yl)methyl)-6-methylpicolinamide], for which the IC50 against human RET kinase was not above 10 nM; on human KDR kinase, not above 10 nM; with TT cells (Homo sapiens, TT, 192 h), not above 10 nM.
Regarding `Cn1cc(-c2cc(-c3ccc(N4C[C@@H]5[C@@H](CNC(=O)c6c(F)cccc6Cl)[C@@H]5C4)nc3)c3c(C#N)cnn3c2)cn1` [Example 83, 2-chloro-N-(((1R,5S,6s)-3-(5-(3-cyano-6-(1-methyl-1H-pyrazol-4-yl)pyrazolo[1,5-a]pyridin-4-yl)pyridin-2-yl)-3-azabicyclo[3.1.0]hexan-6-yl)methyl)-6-fluorobenzamide], the IC50 was not above 10 nM at human RET kinase; 10 to 50 nM on human KDR kinase; not above 10 nM in the assay with TT cells (Homo sapiens, TT, 192 h).
As for `Cc1cccc(Cl)c1C(=O)NC[C@@H]1[C@H]2CN(c3ccc(-c4cc(-c5cnn(C)c5)cn5ncc(C#N)c45)cn3)C[C@@H]12` [Example 84, 2-chloro-N-(((1R,5S,6s)-3-(5-(3-cyano-6-(1-methyl-1H-pyrazol-4-yl)pyrazolo[1,5-a]pyridin-4-yl)pyridin-2-yl)-3-azabicyclo[3.1.0]hexan-6-yl)methyl)-6-methylbenzamide], the IC50 against human RET kinase, against human KDR kinase and in the assay with TT cells was not above 10 nM throughout.
Turning to `Cn1cc(-c2cc(-c3ccc(N4C[C@@H]5[C@@H](CNC(=O)c6ncc(F)cc6Cl)[C@@H]5C4)nc3)c3c(C#N)cnn3c2)cn1` [Example 85, 3-chloro-N-(((1R,5S,6s)-3-(5-(3-cyano-6-(1-methyl-1H-pyrazol-4-yl)pyrazolo[1,5-a]pyridin-4-yl)pyridin-2-yl)-3-azabicyclo[3.1.0]hexan-6-yl)methyl)-5-fluoropicolinamide], the IC50 was not above 10 nM against human RET kinase; not above 10 nM at human KDR kinase; not above 10 nM with TT cells (Homo sapiens, TT, 192 h).
